Test results from patent US9949961B2, “Agent for the prophylaxis and/or treatment of neoplastic diseases” (priority 2013, dated 2018).

How the values were obtained:
[1] = tested on: hepatic tumors induced by DENA; assay: Preventive effect on hepatic neoplasms induced by N-diethyl nitrosamine (DENA) in rats; type: in vivo, male Wistar rats; conditions: for Preventive effect in relation to hepatic tumors: 25 mg/kg a day, DENA carcinogenesis in rats; for Weight of rats / Number of animals with induced tumors / Number of hepatic tumors: 25 mg/kg/day in drinking water, DENA 30 mg/kg/week i.p.; for Weight of rats: from 3 weeks prior to DENA and then 2.5 months; for Number of animals with induced tumors: 16 animals in group; for Number of hepatic tumors: counted visually on liver surface
Experimental: The efficacy of preventive effects of Products 1 and 2 in relation to hepatic neoplasms was shown in the experiment on male Wistar rats which were intraperitoneally administered with chemical carcinogen-N-diethyl nitrosamine (DENA) (Nitrosodiethylamin (N—N)). The nature of the invention is explained with the execution example.
To solve the task, 3 groups of male Wistar rats weighing 150-200 g were formed, 16 in each. Rats of the control group were administered intraperitoneally with DENA in dose 30 mg/kg/week. The dosage was administered in 2 doses: Monday and Thursday. The animals of test groups were similarly administered with DENA. Rats of test groups took drinking water in addition to Products 1 and 2 assuming that they took 25 mg/kg of body weight/day with water. The animals started taking the products 3 weeks prior administration of N-diethyl nitrosamine to develop protective background in animal body and subsequently for 2.5 months.
During the experiment, weight of rats was controlled. After autopsy of animals, liver was weighted, tumors were visually counted on its surface and photographed.

Lewis carcinoma = assay: Anti-neoplastic and anti-metastatic activity in mice with Lewis carcinoma implanted to the paw; type: in vivo, male mice F1 (CBA×C57B1/6); conditions: for Number of lung metastases: day 21 after tumor implantation; for Growth of Lewis carcinoma in mice: 5 and 25 mg/kg, inhibition is dose-related
Experimental: The efficacy of anti-neoplastic (anti-proliferative) and anti-metastatic properties of products 1 and 2 was shown in the experiment on male mice F1 (CBA×CS7B1/6) with Lewis carcinoma implanted to the paw following intragastric administration in two doses: 5 mg/kg and 25 mg/kg for 3 weeks immediately after implantation and within 1 week prior tumor transplantation.
Test system. To examine anti-neoplastic (anti-proliferative) and anti-metastatic properties of products 1 and 2, 120 hybrid male mice of the first generation CBA×[…] were used: each group of 10-12 mice. Lewis carcinoma was implanted to a hind paw, in the amount ˜10^6 cells (˜0.2 cm^3) Doses and dosing schemes for products 1 and 2. Route of the product administration—per os provided addition of products 1 and 2 to drinking water which was given to animals. Products 1 and 2 were added to drinking water by two schemes: within 3 weeks immediately after implantation and within 4 weeks with the dosing started prior implantation.
Anti-neoplastic (anti-proliferative) and anti-metastatic activity of products 1 and 2 was assessed based on change of tumor volume and number of lung metastases. The number of metastases was assessed on day 21 after tumor implantation (day 28 after the administration of products 1 and 2 by the 1-st scheme). For that, lungs were withdrawn in animals decapitated under anesthesia and transferred to Bouin's fluid. Metastases were visually counted. The volume of neoplasm was assessed by ellipsoid equation (1). […]
[formula] where: d1, d2, d3—mutually perpendicular tumor sizes.

[2] = tested on: neuroblastoma N2A cell culture; conditions: cited from earlier work
[3] = 5 mg/kg per os in drinking water, after implantation (scheme 2), day 1
[4] = 5 mg/kg per os in drinking water, after implantation (scheme 2), day 7
[5] = 5 mg/kg per os in drinking water, after implantation (scheme 2), day 15
[6] = 5 mg/kg per os in drinking water, prior and after implantation (scheme 1), day 1
[7] = 5 mg/kg per os in drinking water, prior and after implantation (scheme 1), day 7
[8] = 5 mg/kg per os in drinking water, prior and after implantation (scheme 1), day 15
[9] = 5 mg/kg, after implantation (scheme 2)
[10] = 5 mg/kg, prior and after implantation (scheme 1)
[11] = 25 mg/kg per os in drinking water, after implantation (scheme 2), day 1
[12] = 25 mg/kg per os in drinking water, after implantation (scheme 2), day 7
[13] = 25 mg/kg per os in drinking water, after implantation (scheme 2), day 15
[14] = 25 mg/kg per os in drinking water, prior and after implantation (scheme 1), day 1
[15] = 25 mg/kg per os in drinking water, prior and after implantation (scheme 1), day 7
[16] = 25 mg/kg per os in drinking water, prior and after implantation (scheme 1), day 15
[17] = 25 mg/kg, after implantation (scheme 2)
[18] = 25 mg/kg, prior and after implantation (scheme 1)

Structure (SMILES)	Preventive effect in relation to hepatic tumors [1]	Weight of rats [1]	Number of animals with induced tumors [1]	Number of hepatic tumors [1]	Tumor volume (Lewis carcinoma; [3])	Tumor volume (Lewis carcinoma; [4])	Tumor volume (Lewis carcinoma; [5])	Tumor volume (Lewis carcinoma; [6])	Tumor volume (Lewis carcinoma; [7])	Tumor volume (Lewis carcinoma; [8])	Number of lung metastases (Lewis carcinoma; [9])	Number of lung metastases (Lewis carcinoma; [10])	Tumor volume (Lewis carcinoma; [11])	Tumor volume (Lewis carcinoma; [12])	Tumor volume (Lewis carcinoma; [13])	Tumor volume (Lewis carcinoma; [14])	Tumor volume (Lewis carcinoma; [15])	Tumor volume (Lewis carcinoma; [16])	Number of lung metastases (Lewis carcinoma; [17])	Number of lung metastases (Lewis carcinoma; [18])	also measured
O=C1CSC(=S)N1CCc1ccncc1 [Product 2]	have preventive effect	145.9 ± 1.26 g	15	16.6 ± 3.12	49 ± 15 mm^3	702 ± 92 mm^3	1806 ± 203 (P < 0.05) mm^3	39 ± 13 mm^3	706 ± 99 mm^3	1588 ± 127 (P < 0.01)^3 mm^3	33.3 ± 7.8	43.4 ± 6.5	70 ± 14 mm^3	827 ± 140 mm^3	1459 ± 299 (P < 0.01) mm^3	98 ± 95 mm^3	650 ± 97 mm^3	1204 ± 226 (P < 0.01) mm^3	19.0 ± 5.1 (P < 0.01)^3	34.2 ± 8.9	Growth of Lewis carcinoma in mice (Lewis carcinoma): able to inhibit growth
O=C1CSC(=S)N1CCc1ccccc1 [Product 1]	have preventive effect	146.4 ± 3.57 g	15	15.1 ± 2.88	52 ± 17 mm^3	708 ± 86 mm^3	1826 ± 196 (P < 0.05) mm^3	40 ± 15 mm^3	715 ± 103 mm^3	1597 ± 133 (P < 0.01)^2 mm^3	32.8 ± 8.1	42.2 ± 7.1	60 ± 19 mm^3	812 ± 153 mm^3	1437 ± 325 (P < 0.01) mm^3	101 ± 29 mm^3	671 ± 104 mm^3	1225 ± 214 (P < 0.01) mm^3	20.3 ± 4.2 (P < 0.01)^2	33.1 ± 9.1	Anti-proliferative effect [2]: anti-proliferative effect; Growth of Lewis carcinoma in mice (Lewis carcinoma): able to inhibit growth
